Reference: publication PMC3282769 (PLoS ONE, 2012)

What was measured:
[1] = biological target: T1, OTC (ornithine transcarbamylase) (Enterococcus faecalis, UniProt Q839Q5); test: citrulline production, approach to equilibrium; turnover only; type: biochemical; details: 10 mM ornithine, 10 mM carbamylphosphate, 0.1 M Tris-HCl pH 8.5, 37°C
T1 construct: gene arcB
T1 sequence (Q839Q5 1-339): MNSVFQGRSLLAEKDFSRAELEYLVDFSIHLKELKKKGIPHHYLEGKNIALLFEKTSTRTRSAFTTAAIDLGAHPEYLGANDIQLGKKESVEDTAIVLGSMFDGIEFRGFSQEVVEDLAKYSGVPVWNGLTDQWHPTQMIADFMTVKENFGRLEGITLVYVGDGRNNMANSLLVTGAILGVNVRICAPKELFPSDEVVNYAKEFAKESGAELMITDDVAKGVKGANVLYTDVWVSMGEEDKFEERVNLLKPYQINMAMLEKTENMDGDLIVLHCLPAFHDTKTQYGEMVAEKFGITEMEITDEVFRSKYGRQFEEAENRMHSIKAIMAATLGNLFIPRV

[2] = biological target: T2, truncated PTC (PTC lacking the C-terminal helix 13) (Enterococcus faecalis, UniProt Q837U7); test: X-ray crystal structure, […] Å; type: binding; details: bisubstrate analogue in active site; pH 7.5
T2 construct: gene ptcA

[3] = biological target: T3, PTC (putrescine transcarbamylase) (Enterococcus faecalis, UniProt Q837U7); test: X-ray crystal structure, […] Å; type: binding; details: bisubstrate analogue in active site; pH 5.5
T3 construct: gene ptcA

[4] = biological target: T3, PTC (putrescine transcarbamylase); test: inhibition of transcarbamylase activity, PAPU titration; type: biochemical; details: putrescine or ornithine as substrate (one common curve); bisubstrate analogue inhibitor
[5] = biological target: T3, PTC (putrescine transcarbamylase); test: X-ray crystal structure, […] Å; type: binding; details: bisubstrate analogue in active site; pH 5.5; remark: listed apart in the source

T3 sequence (Q837U7 whole entry): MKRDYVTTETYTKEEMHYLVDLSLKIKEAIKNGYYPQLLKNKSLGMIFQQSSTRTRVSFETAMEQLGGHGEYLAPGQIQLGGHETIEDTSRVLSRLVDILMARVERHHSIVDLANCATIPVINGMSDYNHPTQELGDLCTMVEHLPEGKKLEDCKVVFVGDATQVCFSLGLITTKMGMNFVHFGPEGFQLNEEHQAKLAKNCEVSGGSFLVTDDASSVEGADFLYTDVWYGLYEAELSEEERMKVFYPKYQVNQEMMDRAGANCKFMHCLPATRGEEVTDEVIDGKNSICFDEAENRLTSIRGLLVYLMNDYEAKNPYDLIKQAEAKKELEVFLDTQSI
T2 sequence (Q837U7 1-317): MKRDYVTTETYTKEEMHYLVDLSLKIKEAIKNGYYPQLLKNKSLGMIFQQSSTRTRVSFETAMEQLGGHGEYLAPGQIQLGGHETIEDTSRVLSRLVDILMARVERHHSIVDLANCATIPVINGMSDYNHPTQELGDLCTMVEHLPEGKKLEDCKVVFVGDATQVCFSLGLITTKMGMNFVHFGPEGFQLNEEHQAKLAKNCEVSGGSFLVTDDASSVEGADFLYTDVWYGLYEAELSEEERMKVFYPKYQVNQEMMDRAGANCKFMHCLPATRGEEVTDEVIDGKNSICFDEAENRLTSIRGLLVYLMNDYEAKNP

NCCC[C@H](N)C(=O)O [L-ornithine]
citrulline production, approach to equilibrium; turnover only [1]: carbamylation of ornithine (open symbols) using either OTC (squares) or PTC (triangles)

N[C@@H](CCCNC(=O)CP(=O)(O)O)C(=O)O [PALO, δ-N-(phosphonoacetyl)-L-ornithine]
X-ray crystal structure, 1.59 Å [2]: 4A8H, 4A8P and 4A8T for PTC-PAPU, PTC-PALO and truncated PTC-PALO, respectively
X-ray crystal structure, 2.0 Å [3]: 4A8H, 4A8P and 4A8T for PTC-PAPU, PTC-PALO and truncated PTC-PALO, respectively

NCCCCNC(=O)CP(=O)(O)O [PAPU, N-(phosphonoacetyl)-putrescine]
% activity [4]: PAPU inhibited similarly the activities of PTC with putrescine and with ornithine
X-ray crystal structure, 2.5 Å [5]: 4A8H, 4A8P and 4A8T for PTC-PAPU, PTC-PALO and truncated PTC-PALO, respectively
